From article PMC10578352, “Identification of a Protein Arginine Methyltransferase 7 (PRMT7)/Protein Arginine Methyltransferase 9 (PRMT9) Inhibitor” (Journal of Medicinal Chemistry, 2023) come the findings set out here.

In one experiment the target is T1, DOT1L/KMT4 (Homo sapiens, UniProt Q8TEK3).
T1 construct: the human recombinant DOT1L (residues 1–416); N-terminal GST-tag; GST (N); purchased Reaction Biology Corporation
Briefly: HotSpot KMT activity assay, DOT1L. In kind it is biochemical. On the procedure: Then, ^3H-SAM (final concentration 1 μM) was delivered into the reaction mixture to initiate the reaction. After incubation for 60 min at 30 °C, the reaction mixture was delivered to filter paper for detection (as assessed by scintillation). […] No inhibitor control (DMSO) was considered as showing 100% enzyme activity. Data were analyzed using Excel and GraphPad Prism 6.0 software (GraphPad Software Inc., San Diego, CA). Values obtained for each compound are mean ± SD determined for two separate experiments.

The target in a further experiment is T2, SUV39H2/KMT1B (Homo sapiens, UniProt Q9H5I1).
T2 construct: the human recombinant SUV39H2 (residues 46–410, C-terminus); His (C); purchased Reaction Biology Corporation
T2 sequence (Q9H5I1 46-410): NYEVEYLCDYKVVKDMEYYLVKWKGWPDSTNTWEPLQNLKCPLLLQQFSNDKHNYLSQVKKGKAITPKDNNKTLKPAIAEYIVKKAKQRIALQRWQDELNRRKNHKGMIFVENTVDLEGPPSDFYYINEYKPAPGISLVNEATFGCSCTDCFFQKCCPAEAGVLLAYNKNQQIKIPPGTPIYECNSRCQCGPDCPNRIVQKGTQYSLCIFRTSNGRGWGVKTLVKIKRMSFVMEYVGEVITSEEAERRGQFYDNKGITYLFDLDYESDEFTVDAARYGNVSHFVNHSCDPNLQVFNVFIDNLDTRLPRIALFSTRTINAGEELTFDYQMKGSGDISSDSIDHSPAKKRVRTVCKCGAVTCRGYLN
The experiment can be described thus: HotSpot KMT activity assay, SUV39H2. The settings on record: read-out: % SUV39H2 residual activity. Type of experiment: biochemical. The text has this:
; MW = 35.4 kDa; Genbank Accession # NM_018489), or the human recombinant EZH2-containing five-member polycomb repressive complex 2 (including EZH2 residues 2–746, AEBP2 2–517, EED 2–441, RbAp48 2–425, SUZ12 2–739; all full-length; with N-terminal Flag-tag on EED and N-terminal His-tag on all others; MW = 333.8 kDa; Genbank Accession # NM_001203247, NM_001114176, NM_003797, NM_005610, NM_015355), or the human recombinant G9a (residues 913–1193, C-terminus; with an N-terminal His-tag; MW = 34.6 kDa; Genbank Accession # NM_006709.3), or the human recombinant MLL1 complex (including MLL1 residues 3745–3969, C-terminus, WDR5 22–334, C-terminus, RbBP5 1–538, C-terminus, ASH2L 2–534, C-terminus, DPY-30 1–99, C-terminus; N-terminal His-tag on all subunits; MW = 212.0 kDa; Genbank Accession # NM_005933, NM_017588, NM_005057, NM_001105214, NM_0325742), or the human recombinant SET7/9 (residues 2–366, C-terminus; with a N-terminal GST-tag and a C-terminal His-tag; MW = 68.5 kDa; Genbank Accession # NM_030648), or the human recombinant SMYD3 (residues 2–428, C-terminus; C-terminal His-tag; MW = 50.1 kDa; Genbank Accession # NM_001167740), or the human recombinant SUV39H2 (residues 46–410, C-terminus; N-terminal fusion protein with a C-terminal His-tag; MW = 98.8 kDa; GenBank Accession No. NM_001193424), or the human recombinant DOT1L (residues 1–416; N-terminal GST-tag; MW = 80.0 kDa; Genbank Accession # NM_032482) was added to a solution of the proper substrate (oligo nucleosomes for ASH1L, MLL1 complex, and DOT1L, final concentration 0.05 mg/mL; core histone for EZH2 complex and SET7/9, final concentration 0.05 mg/mL; histone H3 for SUV39H2, final concentration 5 μM; histone H3 1–21 for G9a, final concentration 2.5 μM) in freshly prepared reaction buffer (50 mM Tris-HCl (pH 8.5), 5 mM MgCl2, 50 mM NaCl, 1 mM DTT, 1 mM PMSF, 1% DMSO) and gently mixed. […] After incubation for 60 min at 30 °C, the reaction mixture was delivered to filter paper for detection (as assessed by scintillation). […] Values obtained for each compound are mean ± SD determined for two separate experiments.

T1 sequence (Q8TEK3 1-416): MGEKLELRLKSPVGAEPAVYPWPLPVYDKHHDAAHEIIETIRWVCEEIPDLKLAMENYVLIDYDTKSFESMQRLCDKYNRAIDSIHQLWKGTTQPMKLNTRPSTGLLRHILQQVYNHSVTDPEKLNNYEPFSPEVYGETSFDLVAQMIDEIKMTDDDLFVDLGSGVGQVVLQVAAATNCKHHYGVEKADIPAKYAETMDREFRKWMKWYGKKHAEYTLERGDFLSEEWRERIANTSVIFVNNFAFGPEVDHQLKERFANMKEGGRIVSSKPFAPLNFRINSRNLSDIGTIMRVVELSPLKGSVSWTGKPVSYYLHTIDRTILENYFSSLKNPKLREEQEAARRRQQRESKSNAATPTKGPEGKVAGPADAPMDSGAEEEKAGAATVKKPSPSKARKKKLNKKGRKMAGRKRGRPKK

Turning to `COC(=O)c1cc(O)c2cc(NC(=O)NCCCNC(=N)NC[C@H]3O[C@@H](n4cnc5c(N)ncnc54)[C@H](O)[C@@H]3O)cc(C(F)(F)F)c2c1` [1j, Methyl 6-(3-(3-(3-(((2R,3S,4R,5R)-5-(6-Amino-9H-purin-9-yl)-3,4-dihydroxytetrahydrofuran-2-yl)methyl)guanidino)propyl)ureido)-4-hydroxy-8-(trifluoromethyl)-2-naphthoate], the “inhibition of DOT1L/KMT4 (in words)” value on DOT1L/KMT4 (10 μM) was “significantly inhibited”. The remaining activity at 10 µM on DOT1L/KMT4 (10 μM, read-out: % DOT1L residual activity) was found to be 11.2 ± 0.88%; at SUV39H2/KMT1B (10 μM), 89.7 ± 1.08%. Also, the remaining activity at 100 µM was determined as 1.35 ± 0.17% at DOT1L/KMT4 (100 μM, read-out: % DOT1L residual activity) and 83.76 ± 0.22% at SUV39H2/KMT1B (100 μM).
